The text below walks through data of US12077503B2, “Substituted cyclic amides and their use as herbicides” (FMC CORPORATION, priority 2015, dated 2024).

Common to all, as to assay type: in vivo
Assay [1] relates to ryegrass, Italian (Italian ryegrass, Lolium multiflorum). Put plainly: Test A preemergence. As to conditions: Lolium multiflorum, pre-emergence, 240 h, 125 g ai/ha, preemergence; visual rating after approx. 10 d; 0 to 100 scale where 0 is no effect and 100 is complete control; read-out: Plant response rating, Ryegrass, Italian. The method, boiled down:
(§1)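 Treatment is preemergence as a directed soil spray after planting, or postemergence at the one- to two-leaf stage, with test chemical in a non-phytotoxic solvent mixture plus surfactant. Plants stay in the greenhouse about 10 d before visual injury scoring on a 0 to 100 scale versus untreated controls.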

Assay [2] concerns Galium (catchweed bedstraw, Galium aparine). Put plainly: Test A postemergence. As to conditions: Galium, post-emergence, 240 h, 125 g ai/ha, postemergence; visual injury after approximately 10 d; 0 to 100 scale (0 no effect, 100 complete control); read-out: Plant response rating, Galium. An outline of the steps: as §1
The test system of assay [3] is barnyardgrass (Echinochloa crus-galli). Kind of assay: Test A postemergence. As to conditions: Echinochloa crus-galli, post-emergence, 240 h; for pest or weed control at 125 g/ha: 125 g ai/ha; for pest or weed control at 500 g/ha: 500 g ai/ha, visual injury, approx. 10 d. An outline of the steps:
as §1

Assay [4] deals with blackgrass (Alopecurus myosuroides). Put plainly: Test A postemergence. As to conditions: Alopecurus myosuroides, post-emergence, 240 h, 125 g ai/ha, postemergence; visual injury after approximately 10 d; 0 to 100 scale (0 no effect, 100 complete control); read-out: Plant response rating, Blackgrass. The method, boiled down:
as §1

Another assay concerns corn (Zea mays). Kind of assay: Test A postemergence. As to conditions: Zea mays, post-emergence, 240 h; for plant injury at 125 g/ha / Corn plant response rating (crop injury, 0 = no effect, 100 = complete kill) at 500 g/ha: Postemergence; for plant injury at 125 g/ha: visual rating about 10 d after treatment, read-out: Corn plant response rating (0 to 100 scale); for Corn plant response rating (crop injury, 0 = no effect, 100 = complete kill) at 500 g/ha: 500 g ai/ha, visual injury, approx. 10 d. An outline of the steps: as §1

In assay [5] the test system is giant foxtail (Setaria faberii). Put plainly: Test A postemergence. As to conditions: Setaria faberi, post-emergence, 240 h; for pest or weed control at 125 g/ha: 125 g ai/ha; for pest or weed control at 500 g/ha: 500 g ai/ha, visual injury, approx. 10 d. The method, boiled down: as §1
Assay [6] has as its system pigweed (Amaranthus retroflexus). Put plainly: Test A postemergence. As to conditions: Amaranthus retroflexus, post-emergence, 240 h; for pest or weed control at 125 g/ha: 125 g ai/ha; for pest or weed control at 500 g/ha: 500 g ai/ha, visual injury, approx. 10 d. The method, boiled down: as §1
Assay [7] has as its system ragweed (common ragweed, Ambrosia elatior). Kind of assay: Test A postemergence. As to conditions: Ambrosia artemisiifolia, post-emergence, 240 h, 125 g ai/ha, postemergence; visual injury after approximately 10 d; 0 to 100 scale (0 no effect, 100 complete control); read-out: Plant response rating, Ragweed. An outline of the steps:
as §1

Assay [8] deals with ryegrass, Italian (Italian ryegrass, Lolium multiflorum). Kind of assay: Test A postemergence. As to conditions: Lolium multiflorum, post-emergence, 240 h, 125 g ai/ha, postemergence; visual injury after approximately 10 d; 0 to 100 scale (0 no effect, 100 complete control); read-out: Plant response rating, Ryegrass, Italian. An outline of the steps:
as §1

For assay [9], the system named is wheat (Triticum aestivum). Put plainly: Test A postemergence. As to conditions: Triticum aestivum, post-emergence, 240 h; for plant injury at 125 g/ha: 125 g ai/ha; for plant injury at 500 g/ha: 500 g ai/ha, visual injury, approx. 10 d. An outline of the steps: as §1
Assay [10] has as its system barnyardgrass (Echinochloa crus-galli). Kind of assay: Test B flooded paddy test. As to conditions: Echinochloa crus-galli, Flood, 250 g ai/ha; scale of 0 to 100 where 0 is no effect and 100 is complete control; read-out: Barnyardgrass plant response rating. The method, boiled down:
(§2)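 Visual ratings (0 none to 100 complete control) are relative to untreated plants, taken 13–15 d after treatment in a greenhouse. Test material went straight into floodwater standing 3 cm above the soil, kept constant, on plants at the 2-leaf stage.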

Assay [11] concerns ducksalad (Heteranthera limosa). Kind of assay: Test B flooded paddy test. As to conditions: Heteranthera limosa, Flood, 250 g ai/ha; scale of 0 to 100 where 0 is no effect and 100 is complete control; read-out: Ducksalad plant response rating. The method, boiled down: as §2
The subject of another assay is rice (Oryra sativa). Put plainly: Test B flooded paddy test. As to conditions: Oryza sativa, Flood, 250 g ai/ha; scale of 0 to 100 where 0 is no effect and 100 is complete control; read-out: Rice plant response rating. The method, boiled down: as §2
Assay [12] deals with sedge, umbrella (small-flower umbrella sedge, Cyperus difformis). Kind of assay: Test B flooded paddy test. As to conditions: Cyperus difformis, Flood, 250 g ai/ha; scale of 0 to 100 where 0 is no effect and 100 is complete control; read-out: Sedge, Umbrella plant response rating. An outline of the steps:
as §2

Where [13] appears, read: Postemergence, visual rating about 10 d after treatment, read-out: Barnyardgrass plant response rating (0 to 100 scale, 0 no effect, 100 complete control).
The mark [14] stands for this setting: Postemergence, 0 to 100 scale (0 no effect, 100 complete control), read-out: Plant response rating, Barnyardgrass.
[15] abbreviates: 0 to 100 scale (0 no effect, 100 complete control).
The mark [16] stands for this setting: Postemergence, visual rating about 10 d after treatment, read-out: Foxtail, Giant plant response rating (0 to 100 scale).
Where [17] appears, read: Postemergence, 0 to 100 scale (0 no effect, 100 complete control), read-out: Plant response rating, Foxtail, Giant.
The mark [18] stands for this setting: Postemergence, visual rating about 10 d after treatment, read-out: Pigweed plant response rating (0 to 100 scale).
[19] abbreviates: Postemergence, 0 to 100 scale (0 no effect, 100 complete control), read-out: Plant response rating, Pigweed.
Where [20] appears, read: Postemergence, visual rating about 10 d after treatment, read-out: Wheat plant response rating (0 to 100 scale).
Setting [21] is: Postemergence, 0 to 100 scale (0 no effect, 100 complete control), read-out: Plant response rating, Wheat.

Like-named read-outs stand apart in the source and are kept apart here.

For the molecule `CN1CC(c2cccc(OC/C=C/Cl)c2)C(C(=O)Nc2cccc(F)c2F)C1=O` (stereo not shown) [Compound 772], the pest or weed control at 125 g/ha in [1] came out at 0%; in assay [2], 0%; in assay [3] (postemergence, visual injury after approximately 10 d, 0 to 100 scale (0 no effect, 100 complete control), read-out: Plant response rating, Barnyardgrass), 0%; in assay [4], 0%; in assay [5] (postemergence, visual injury after approximately 10 d, 0 to 100 scale (0 no effect, 100 complete control), read-out: Plant response rating, Foxtail, Giant) it was 30%; in assay [6] (postemergence, visual injury after approximately 10 d, 0 to 100 scale (0 no effect, 100 complete control), read-out: Plant response rating, Pigweed), 0%. The pest or weed control at 125 g/ha in assay [7] and in assay [8] was 0% throughout. Also, the Corn plant response rating (crop injury, 0 = no effect, 100 = complete kill) at 125 g/ha in the assay with corn (Zea mays) (125 g ai/ha, postemergence, visual injury after approximately 10 d, 0 to 100 scale (0 no effect, 100 complete control)) was 0%. Also, the plant injury at 125 g/ha in assay [9] (postemergence, visual injury after approximately 10 d, 0 to 100 scale (0 no effect, 100 complete control), read-out: Plant response rating, Wheat) came out at 0%. Also, the pest or weed control at 250 g/ha turned out to be 0% in assay [10], 75% in [11], 0% in the assay with rice (Oryra sativa) and 0% in assay [12].

Take `O=C1NCC(c2ccccc2)C1C(=O)Nc1cc(F)ccc1F` (stereo not shown) [Compound 1359]: the pest or weed control at 125 g/ha in assay [3] (setting [13]), in [5] (setting [16]) and in [6] (setting [18]) was 0% each time. Besides, the pest or weed control at 500 g/ha in [3] (setting [14]), in [5] (setting [17]) and in [6] (setting [19]) was 0% each time. The plant injury at 125 g/ha (in the assay on corn (Zea mays) (125 g ai/ha); in assay [9] (setting [20])) was 0% in each case. The same molecule displayed a Corn plant response rating (crop injury, 0 = no effect, 100 = complete kill) at 500 g/ha in the assay on corn (Zea mays) (setting [15]) of 0%. Moreover, the plant injury at 500 g/ha in assay [9] (setting [21]) stood at 0%.

As to `O=C1NCC(c2ccccc2)C1C(=O)Nc1ccc(C(F)(F)F)cc1` (stereo not shown) [Compound 1362], the pest or weed control at 125 g/ha in assay [3] (setting [13]), in assay [5] (setting [16]) and in assay [6] (setting [18]) was 0% in each case. Besides, the pest or weed control at 500 g/ha in [3] (setting [14]), in assay [5] (setting [17]) and in [6] (setting [19]) was 0% in each case. Moreover, the plant injury at 125 g/ha (with corn (Zea mays) (125 g ai/ha); in [9] (setting [20])) was 0% in each case. In the assay on corn (Zea mays) (setting [15]), this molecule showed a Corn plant response rating (crop injury, 0 = no effect, 100 = complete kill) at 500 g/ha of 0%. For the same molecule, the plant injury at 500 g/ha in [9] (setting [21]) is 0%.
